{"source": "patent US10538561B2", "about": "“Peptide for treating inflammatory diseases” (priority 2015, dated 2020)", "key": {"[1]": {"test": "Cell viability (MTT assay) in PBMCs", "assay_type": "cell-based, Human", "details": "human, PBMCs", "description": "(§1) Cell Lines/Cells: Human Keratinocytes (HaCaT); Human melanoma (SK-MEL-28); Human PBMCs. Test Item: IS181 Treatment regimen: Single addition—24 h, ^#Multiple additions (3)−72 h; Concentration range: 1 ng/ml-2 mg/ml (triplicate wells); Sera Condition: […] Method of estimation: MTT assay. […] Positive control: Triton-X-100, Doxorubicin Hydrochloride."}, "Human PBMCs": {"tested_on": "Human PBMCs", "test": "Cell viability (MTT assay) in PBMCs", "assay_type": "cell-based", "details": "for IC50 value / cytotoxicity: PBMCs", "description": "as §1"}, "[2]": {"tested_on": "Human endothelial cells (EA.hy 926)", "test": "Inhibition of endothelial cell migration (wound)", "assay_type": "cell-based", "details": "for % Inhibition of migration with respect to respective 0 h control: EA.hy926, 14 h", "description": "Cell line: Human endothelial cells (EA.hy 926); test item: IS 181; treatment regimen: single addition; concentration range: 0.1 μg/ml-1 mg/ml; sera condition: medium containing 10% FBS. […] The cells were then subjected to serum starved with medium containing 1% FBS for 24 hours. 24 hours post serum starvation, the wounds (straight line) were created in the middle of the well using a sterile 200 μl pipette tip. Cells were washed twice using DMEM followed by treatment with different concentrations of IS 181 in DMEM containing 10% FBS. Images of wound were taken at 0 h and 14 h at three points in single well and distance of wound closure was measured using Image J software. End point: image analysis of cell migration of different concentrations of IS 181 treated cells at 0 hour and after 14 hours of treatment. Percentage inhibition in cell migration of different concentrations of IS 181 treated cells were calculated after 14 h of treatment with respect to respective 0 hours (FIG. 13). […] (FIGS. 14A-14B)."}, "IL-1-β": {"tested_on": "IL-1-β", "test": "LPS stimulated IL-1-β secretion in RAW264.7", "assay_type": "cell-based, Mouse", "details": "for IL-1-β % decrease with respect to LPS / IL-1-β Conc: RAW264.7 + LPS, 24 h", "description": "Effect on pro-inflammatory cytokines against LPS stimulation: TNF-α; IL-6; IL-1-β: Cell lines: Murine macrophage cell line (RAW264.7); test item: IS181; experimental steps: pretreatment of cells with TI for 2 hours; stimulation with LPS (100 ng/ml) for 24 hours; supernatant collection for cytokine analysis; concentration range: o.1 μg/ml-500 μg/ml (duplicate wells); Cytokines: TNF-α; IL-6; IL-1-β; Method of estimating cytokines: ELISA; positive control: dexamethasone.\nCell line: RAW264.7 (Mouse macrophages); TI treatment regimen: Pretreatment for 2 h; TI Concentration range: 0.1 μg/ml-500 μg/ml (duplicate wells); LPS stimulation: 100 ng/ml; Time point for supernatants collection: 24 h; Method of estimation: ELISA; Positive control: Dexamethasone"}, "IL-6": {"tested_on": "IL-6", "test": "LPS+PMA stimulated IL-6 secretion in HaCaT", "assay_type": "cell-based, Human", "details": "24 h", "description": "Effect on pro-inflammatory cytokines against TNF-α/LPS+PMA stimulation: TNF-α; IFN-γ; TARC; TSLP; IL-6; IL-8: Cell lines: Human keratinocytes (HaCaT); test item (TI); IS181; experimental steps: pre-treatment of cells with TI for 2 hours; stimulation with TNF-α: 20 ng/ml; stimulation with LPS+PMA-10 μg/ml LPS+40 ng/ml PMA; supernatant collection for cytokine analysis after 24 hours; concentration range: 0.1 μg/ml-100 μg/ml (duplicate wells); cytokines: TNF-α; IFN-γ; TARC; TSLP; IL-6; IL-8. Method of estimating cytokines: ELISA; positive control: dexamethasone.\nCell line: HaCaT (Human Keratinocytes); TI Treatment regimen: Pretreatment for 2 h; TI Concentration range: 0.1 μg/ml-100 μg/ml (duplicate wells); TNF-α stimulation: 20 ng/ml; LPS+PMA stimulation: 10 μg/ml LPS+40 ng/ml PMA; Time point for supernatants collection: 24 h; Method of estimation: ELISA; Positive control: Dexamethasone"}, "IL-23": {"tested_on": "IL-23", "test": "IL-23 secretion in LPS+IFN-γ stimulated THP-1", "assay_type": "cell-based, Human", "details": "THP-1 + LPS + IFN-γ, 24 h", "description": "Cell lines: Human monocytic cell line (THP-1); test item: IS181: treatment regimen; single addition—24 hours; concentration range: 10 μg/ml-5000 μg/ml. A) Identification of non-cytotoxic concentrations: THP-1 cells were treated with IS181 for 24 hours; effect on cell viability was assessed by MTT assay; concentrations leading to >75% cell viability were selected for IL-23 assay. […] Positive control: curcumin. […] Since supernatants corresponding to 5 concentrations were to be tested for […], we also tested 1 mg/ml."}}, "data": [{"substance": "H-WVQRVVEKFLK-OH [IS181, H-Trp-Val-Gln-Arg-Val-Val-Glu-Lys-Phe-Leu-Lys-OH]", "values": [{"measurement": "cytotoxicity at 24 h, 1000 μg/ml", "setting": "[1]; human PBMCs, 24 h, 1000 μg/ml", "value": 40.2, "unit": "%"}, {"measurement": "cytotoxicity at 24 h, 2000 μg/ml", "setting": "[1]; human PBMCs, 24 h, 2000 μg/ml", "value": 53, "unit": "%"}, {"measurement": "cytotoxicity at 72 h, 500 μg/ml", "setting": "[1]; human PBMCs, 72 h, 500 μg/ml", "value": 32.7, "unit": "%"}, {"measurement": "cytotoxicity at 72 h, 1000 μg/ml", "setting": "[1]; human PBMCs, 72 h, 1000 μg/ml", "value": 70.8, "unit": "%"}, {"measurement": "cytotoxicity at 72 h, 2000 μg/ml", "setting": "[1]; human PBMCs, 72 h, 2000 μg/ml", "value": 66.1, "unit": "%"}, {"measurement": "cytotoxicity at 24 h, 10 μg/ml", "setting": "[1]; peripheral blood mononuclear cells (PBMCs), 24 h, 10 μg/ml", "value": -76.5, "unit": "%"}, {"measurement": "cytotoxicity at 24 h, 50 μg/ml", "setting": "[1]; peripheral blood mononuclear cells (PBMCs), 24 h, 50 μg/ml", "value": -67.1, "unit": "%"}, {"measurement": "cytotoxicity at 24 h, 100 μg/ml", "setting": "[1]; peripheral blood mononuclear cells (PBMCs), 24 h, 100 μg/ml", "value": -88.3, "unit": "%"}, {"measurement": "cytotoxicity at 24 h, 500 μg/ml", "setting": "[1]; peripheral blood mononuclear cells (PBMCs), 24 h, 500 μg/ml", "value": -105, "unit": "%"}, {"measurement": "cytotoxicity at 72 h, 10 μg/ml", "setting": "[1]; peripheral blood mononuclear cells (PBMCs), 72 h, 10 μg/ml", "value": 18.7, "unit": "%"}, {"measurement": "cytotoxicity at 72 h, 50 μg/ml", "setting": "[1]; peripheral blood mononuclear cells (PBMCs), 72 h, 50 μg/ml", "value": 20.1, "unit": "%"}, {"measurement": "cytotoxicity at 72 h, 100 μg/ml", "setting": "[1]; peripheral blood mononuclear cells (PBMCs), 72 h, 100 μg/ml", "value": 14, "unit": "%"}, {"measurement": "IC50", "setting": "Human PBMCs; 24 h", "value": 1400, "unit": "µM"}, {"measurement": "IC50", "setting": "Human PBMCs; 72 h", "value": 680, "unit": "µM"}, {"measurement": "IC50 value", "setting": "Human PBMCs; 24 h", "value": 2000, "unit": "µg/mL"}, {"measurement": "cytotoxicity", "setting": "Human PBMCs; 24 h, at concentrations 1 mg/ml", "value": "40% to 53%"}, {"measurement": "IC50 value", "setting": "Human PBMCs; 72 h", "value": 980, "unit": "µg/mL"}, {"measurement": "cytotoxicity", "setting": "Human PBMCs; 72 h, concentrations >0.5 mg/ml", "value": "33% to 66%"}, {"measurement": "inhibition of migration of EA.hy926 cells", "setting": "[2]; 10 μg/ml-1 mg/ml", "value": "17%-54%"}, {"measurement": "% Inhibition of migration with respect to respective 0 h control", "setting": "[2]; 0.1 μg/ml", "value": 0, "unit": "%"}, {"measurement": "% Inhibition of migration with respect to respective 0 h control", "setting": "[2]; 1 μg/ml", "value": 0, "unit": "%"}, {"measurement": "% Inhibition of migration with respect to respective 0 h control", "setting": "[2]; 10 μg/ml", "value": 17, "unit": "%"}, {"measurement": "% Inhibition of migration with respect to respective 0 h control", "setting": "[2]; 50 μg/ml", "value": 34, "unit": "%"}, {"measurement": "% Inhibition of migration with respect to respective 0 h control", "setting": "[2]; 100 μg/ml", "value": 41, "unit": "%"}, {"measurement": "% Inhibition of migration with respect to respective 0 h control", "setting": "[2]; 1 mg/ml", "value": 54, "unit": "%"}, {"measurement": "IL-1-β inhibition as compared to LPS stimulated levels", "setting": "IL-1-β; RAW264.7", "value": "good extent of IL-1-β inhibition"}, {"measurement": "IL-1-β % decrease with respect to LPS", "setting": "IL-1-β; 0.1 μ/ml", "value": 90.0, "unit": "%"}, {"measurement": "IL-1-β Conc", "setting": "IL-1-β; 0.1 μ/ml", "value": 2.2, "unit": "pg/mL"}, {"measurement": "IL-1-β % decrease with respect to LPS", "setting": "IL-1-β; 1 μ/ml", "value": 30.3, "unit": "%"}, {"measurement": "IL-1-β Conc", "setting": "IL-1-β; 1 μ/ml", "value": 15.4, "unit": "pg/mL"}, {"measurement": "IL-1-β % decrease with respect to LPS", "setting": "IL-1-β; 5 μ/ml", "value": 53.7, "unit": "%"}, {"measurement": "IL-1-β Conc", "setting": "IL-1-β; 5 μ/ml", "value": 10.2, "unit": "pg/mL"}, {"measurement": "IL-1-β % decrease with respect to LPS", "setting": "IL-1-β; 10 μ/ml", "value": 71.9, "unit": "%"}, {"measurement": "IL-1-β Conc", "setting": "IL-1-β; 10 μ/ml", "value": 6.2, "unit": "pg/mL"}, {"measurement": "IL-1-β % decrease with respect to LPS", "setting": "IL-1-β; 100 μ/ml", "value": 42.4, "unit": "%"}, {"measurement": "IL-1-β Conc", "setting": "IL-1-β; 100 μ/ml", "value": 12.7, "unit": "pg/mL"}, {"measurement": "IL-1-β % decrease with respect to LPS", "setting": "IL-1-β; 500 μ/ml", "value": 72.6, "unit": "%"}, {"measurement": "IL-1-β Conc", "setting": "IL-1-β; 500 μ/ml", "value": 6.1, "unit": "pg/mL"}, {"measurement": "decrease in IL-1-β level", "setting": "IL-1-β; RAW264.7, 0.1 μg/ml-500 μg/ml", "value": "30.3%-90%"}, {"measurement": "IL-6 % decrease with respect to LPS + PMA", "setting": "IL-6; 0.1 μg/ml", "value": "−58.3", "unit": "%"}, {"measurement": "IL-6 Conc", "setting": "IL-6; 0.1 μg/ml", "value": 23.7, "unit": "pg/mL"}, {"measurement": "IL-6 % decrease with respect to LPS + PMA", "setting": "IL-6; 1 μg/ml", "value": "−78.5", "unit": "%"}, {"measurement": "IL-6 Conc", "setting": "IL-6; 1 μg/ml", "value": 26.7, "unit": "pg/mL"}, {"measurement": "IL-6 % decrease with respect to LPS + PMA", "setting": "IL-6; 5 μg/ml", "value": "−56.5", "unit": "%"}, {"measurement": "IL-6 Conc", "setting": "IL-6; 5 μg/ml", "value": 23.4, "unit": "pg/mL"}, {"measurement": "IL-6 % decrease with respect to LPS + PMA", "setting": "IL-6; 10 μg/ml", "value": "−48.0", "unit": "%"}, {"measurement": "IL-6 Conc", "setting": "IL-6; 10 μg/ml", "value": 22.1, "unit": "pg/mL"}, {"measurement": "IL-6 % decrease with respect to LPS + PMA", "setting": "IL-6; 100 μg/ml", "value": "−160.6", "unit": "%"}, {"measurement": "IL-6 Conc", "setting": "IL-6; 100 μg/ml", "value": 39.0, "unit": "pg/mL"}, {"measurement": "% Inhibition of IL-23 wrt Control (LPS + IFN-γ)", "setting": "IL-23; 10 μg/ml", "value": 69.8, "unit": "%"}, {"measurement": "Conc. of IL-23", "setting": "IL-23; 10 μg/ml", "value": 25.4, "unit": "pg/mL"}, {"measurement": "% Inhibition of IL-23 wrt Control (LPS + IFN-γ)", "setting": "IL-23; 50 μg/ml", "value": 66.3, "unit": "%"}, {"measurement": "Conc. of IL-23", "setting": "IL-23; 50 μg/ml", "value": 25.3, "unit": "pg/mL"}, {"measurement": "% Inhibition of IL-23 wrt Control (LPS + IFN-γ)", "setting": "IL-23; 100 μg/ml", "value": 72.3, "unit": "%"}, {"measurement": "Conc. of IL-23", "setting": "IL-23; 100 μg/ml", "value": 23.3, "unit": "pg/mL"}, {"measurement": "% Inhibition of IL-23 wrt Control (LPS + IFN-γ)", "setting": "IL-23; 500 μg/ml", "value": "−10.9", "unit": "%"}, {"measurement": "Conc. of IL-23", "setting": "IL-23; 500 μg/ml", "value": 93.3, "unit": "pg/mL"}, {"measurement": "% Inhibition of IL-23 wrt Control (LPS + IFN-γ)", "setting": "IL-23; 1000 μg/ml", "value": 39.6, "unit": "%"}, {"measurement": "Conc. of IL-23", "setting": "IL-23; 1000 μg/ml", "value": 50.6, "unit": "pg/mL"}]}]}
